# Target: ATR kinase (Homo sapiens (Human), UniProt Q13535)
# Assay: In vitro ATR kinase inhibition assay (Mobility Shift Assay, Caliper EZ Reader)
# Format: biochemical
# Settings: ATP concentration of Km; 4 h at 28° C.
# Experimental: Experimental method: The inhibitory activity of the compounds on ATR kinase in vitro was determined by Mobility Shift Assay at an ATP concentration of Km using Caliper EZ Reader as a mobility shift assaying technology based on microfluidic chip technology.
# Experimental procedure: (1) The compounds to be tested were dissolved in DMSO and serially diluted 4× for a total of 10 concentrations; (2) 0.06 μL of the compounds at different concentrations were pipetted into a 384-well plate using an Echo pipetting system; (3) a 2× kinase solution with a concentration of 10 nM ATR kinase was prepared from the ATR kinase and the 1× kinase buffer; and a 2× substrate solution with a concentration of 6 μM 5-FAM-AK-17 and 4 μM ATP was prepared from 5-FAM-AK-17, ATP and the 1× kinase buffer; (4) 10 μL of the 2× kinase solution was added into the 384-well plate and incubated for 10 min at room temperature; 10 μL of the 2× substrate solution was then added and incubated for 4 h at 28° C.; (5) 30 μL of the termination buffer was added to terminate the reaction, and then the 384-well plate was put into the Caliper EZ Reader to read the conversion rate data.
# Sequence of ATR kinase (Q13535 whole entry): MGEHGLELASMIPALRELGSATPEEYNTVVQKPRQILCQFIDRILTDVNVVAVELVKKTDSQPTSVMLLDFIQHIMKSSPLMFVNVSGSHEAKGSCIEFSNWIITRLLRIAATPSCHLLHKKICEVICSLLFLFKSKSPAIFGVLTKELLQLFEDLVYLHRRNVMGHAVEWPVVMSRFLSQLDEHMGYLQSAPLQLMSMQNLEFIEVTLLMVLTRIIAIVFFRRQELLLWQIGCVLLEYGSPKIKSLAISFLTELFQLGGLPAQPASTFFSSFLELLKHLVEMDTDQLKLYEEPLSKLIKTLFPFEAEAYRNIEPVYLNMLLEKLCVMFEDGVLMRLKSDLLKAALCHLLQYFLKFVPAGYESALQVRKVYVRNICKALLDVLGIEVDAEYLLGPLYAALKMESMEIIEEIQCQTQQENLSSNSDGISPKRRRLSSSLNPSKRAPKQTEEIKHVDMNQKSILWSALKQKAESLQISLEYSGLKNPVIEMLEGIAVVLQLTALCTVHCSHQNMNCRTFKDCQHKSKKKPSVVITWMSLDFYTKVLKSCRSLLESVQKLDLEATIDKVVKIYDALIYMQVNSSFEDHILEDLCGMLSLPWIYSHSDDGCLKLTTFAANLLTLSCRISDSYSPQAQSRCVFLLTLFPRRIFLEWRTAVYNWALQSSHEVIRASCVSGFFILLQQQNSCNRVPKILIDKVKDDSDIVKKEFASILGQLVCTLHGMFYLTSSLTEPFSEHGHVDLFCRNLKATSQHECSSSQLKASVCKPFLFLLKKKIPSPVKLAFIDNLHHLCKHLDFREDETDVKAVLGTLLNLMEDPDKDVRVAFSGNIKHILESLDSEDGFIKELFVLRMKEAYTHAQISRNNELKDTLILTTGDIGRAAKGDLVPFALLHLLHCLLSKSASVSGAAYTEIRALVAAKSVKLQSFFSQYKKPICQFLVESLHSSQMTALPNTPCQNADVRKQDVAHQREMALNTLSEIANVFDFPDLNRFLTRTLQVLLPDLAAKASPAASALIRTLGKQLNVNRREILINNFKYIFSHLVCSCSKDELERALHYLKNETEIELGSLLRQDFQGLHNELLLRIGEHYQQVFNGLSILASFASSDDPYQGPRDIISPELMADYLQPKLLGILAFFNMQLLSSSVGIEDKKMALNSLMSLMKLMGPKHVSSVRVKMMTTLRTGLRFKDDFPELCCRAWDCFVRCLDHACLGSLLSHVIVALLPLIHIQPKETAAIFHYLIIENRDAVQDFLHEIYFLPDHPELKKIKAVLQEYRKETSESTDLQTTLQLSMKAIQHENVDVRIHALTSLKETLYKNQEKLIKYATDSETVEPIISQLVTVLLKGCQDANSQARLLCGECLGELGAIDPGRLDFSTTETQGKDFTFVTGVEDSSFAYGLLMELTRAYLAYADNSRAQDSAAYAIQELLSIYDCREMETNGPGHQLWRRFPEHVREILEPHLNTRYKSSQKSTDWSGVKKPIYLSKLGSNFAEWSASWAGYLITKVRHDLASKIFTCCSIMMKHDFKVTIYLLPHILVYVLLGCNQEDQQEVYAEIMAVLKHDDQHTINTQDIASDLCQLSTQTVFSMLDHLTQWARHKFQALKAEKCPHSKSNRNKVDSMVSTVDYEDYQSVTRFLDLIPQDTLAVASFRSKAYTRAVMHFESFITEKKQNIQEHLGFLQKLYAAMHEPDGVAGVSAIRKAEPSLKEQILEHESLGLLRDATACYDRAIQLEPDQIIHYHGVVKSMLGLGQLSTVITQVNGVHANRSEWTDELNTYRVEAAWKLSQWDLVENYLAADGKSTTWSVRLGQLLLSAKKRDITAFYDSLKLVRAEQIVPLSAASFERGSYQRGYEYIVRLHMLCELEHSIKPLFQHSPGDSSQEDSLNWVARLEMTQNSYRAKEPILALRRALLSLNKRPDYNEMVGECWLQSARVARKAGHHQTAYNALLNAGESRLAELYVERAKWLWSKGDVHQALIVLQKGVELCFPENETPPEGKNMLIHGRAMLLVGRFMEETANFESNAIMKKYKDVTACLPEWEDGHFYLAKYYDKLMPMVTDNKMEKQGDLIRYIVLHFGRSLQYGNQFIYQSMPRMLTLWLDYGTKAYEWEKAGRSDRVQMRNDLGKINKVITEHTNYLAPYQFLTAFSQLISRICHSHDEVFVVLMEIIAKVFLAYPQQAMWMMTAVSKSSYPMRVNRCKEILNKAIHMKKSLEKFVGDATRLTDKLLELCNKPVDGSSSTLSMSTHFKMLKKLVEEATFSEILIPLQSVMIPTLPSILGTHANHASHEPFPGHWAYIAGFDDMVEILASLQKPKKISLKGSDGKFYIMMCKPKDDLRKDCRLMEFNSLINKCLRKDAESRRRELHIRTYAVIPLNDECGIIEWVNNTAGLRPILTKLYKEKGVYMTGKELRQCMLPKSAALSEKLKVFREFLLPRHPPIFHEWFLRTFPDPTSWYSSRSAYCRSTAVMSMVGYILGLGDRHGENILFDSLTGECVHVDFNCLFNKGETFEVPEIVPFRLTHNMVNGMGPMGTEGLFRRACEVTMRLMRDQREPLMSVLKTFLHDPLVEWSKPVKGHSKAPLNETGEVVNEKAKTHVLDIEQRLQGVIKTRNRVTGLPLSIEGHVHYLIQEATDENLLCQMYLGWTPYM
# Sequence of ATR kinase (Q8WXE1 whole entry partner): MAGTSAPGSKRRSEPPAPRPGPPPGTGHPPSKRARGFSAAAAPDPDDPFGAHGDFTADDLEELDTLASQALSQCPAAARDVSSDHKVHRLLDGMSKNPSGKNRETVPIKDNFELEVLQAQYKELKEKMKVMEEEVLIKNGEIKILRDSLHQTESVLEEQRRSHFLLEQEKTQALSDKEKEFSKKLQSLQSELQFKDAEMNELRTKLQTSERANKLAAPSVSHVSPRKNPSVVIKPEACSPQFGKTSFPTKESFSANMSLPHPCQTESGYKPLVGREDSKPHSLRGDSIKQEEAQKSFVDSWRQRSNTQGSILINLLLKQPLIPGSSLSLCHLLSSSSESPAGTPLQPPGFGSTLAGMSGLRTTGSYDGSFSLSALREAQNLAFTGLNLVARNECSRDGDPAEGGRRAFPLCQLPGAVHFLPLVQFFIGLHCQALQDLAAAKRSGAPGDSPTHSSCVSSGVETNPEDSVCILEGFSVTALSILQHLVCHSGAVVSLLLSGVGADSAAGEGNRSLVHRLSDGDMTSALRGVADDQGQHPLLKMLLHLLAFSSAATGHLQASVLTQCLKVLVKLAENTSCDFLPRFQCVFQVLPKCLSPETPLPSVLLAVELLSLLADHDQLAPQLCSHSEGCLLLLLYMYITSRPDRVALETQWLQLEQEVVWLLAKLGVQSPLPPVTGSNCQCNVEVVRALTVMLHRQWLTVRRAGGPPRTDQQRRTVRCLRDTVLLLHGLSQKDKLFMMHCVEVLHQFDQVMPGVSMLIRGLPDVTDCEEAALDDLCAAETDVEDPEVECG
row,IC50,SMILES
1,78 nM,"C[C@@H]1COCCN1c1cc(-c2ccc(F)c3[nH]ccc23)nc2c1ccn2S(C)(=O)=O [Compound 8, (R)-4-(6-(7-fluoro-1H-indol-4-yl)-1-(methylsulfonyl)-1H-pyrrolo[2,3-b]pyridin-4-yl)-3-methylmorpholine]"
2,208 nM,"C[C@@H]1COCCN1c1cc(-c2cnc3[nH]ccc3c2)nc2c1ccn2S(C)(=O)=O [Compound 4, (R)-3-methyl-4-(1′-(methylsulfonyl)-1H,1′H-[5,6′-dipyrrolo[2,3-b]pyridin]-4′-yl)morpholine]"
3,268 nM,"C[C@@H]1COCCN1c1cc(-c2ccnc3[nH]ccc23)c2ccn(S(C)(=O)=O)c2n1 [Compound 6′, reference compound]"
4,63 nM,"C[C@@H]1COCCN1c1cc(-c2ccnc3[nH]ccc23)nc2c1ccn2C [Compound 2′, reference compound]"
5,196 nM,"C[C@@H]1COCCN1c1cc(-c2ccnc3[nH]cnc23)nc2c1ccn2S(C)(=O)=O [Compound 13, (R)-4-(6-(3H-imidazo[4,5-b]pyridin-7-yl)-1-(methylsulfonyl)-1H-pyrrolo[2,3-b]pyridin-4-yl)-3-methylmorpholine]"
6,130 nM,"C[C@@H]1COCCN1c1cc(-c2ncnc3[nH]ccc23)nc2c1ccn2S(C)(=O)=O [Compound 12, (R)-3-methyl-4-(1-(methylsulfonyl)-6-(7H-pyrrolo[2,3-d]pyrimidin-4-yl)-1H-pyrrolo[2,3-b]pyridin-4-yl)-morpholine]"
7,311 nM,"C[C@@H]1COCCN1c1cc(-c2ccn[nH]2)nc2c1ccn2S(C)(=O)=O [Compound 9, (R)-3-methyl-4-(1-(methylsulfonyl)-6-(1H-pyrazol-5-yl)-1H-pyrrolo[2,3-b]pyridin-4-yl)morpholine]"
8,188 nM,"Cc1c[nH]c2nccc(-c3cc(N4CCOC[C@H]4C)c4ccn(S(C)(=O)=O)c4n3)c12 [Compound 6, (R)-3-methyl-4-(3-methyl-1′-(methylsulfonyl)-1H,1′H-[4,6′-dipyrrolo[2,3-b]pyridin]-4′-yl)morpholine]"
9,28 nM,"CC(n1cnc2c(N3CCOC[C@H]3C)nc(-c3cncc4[nH]ccc34)cc21)S(C)(=O)=O (stereo partly shown) [Compound 7′, reference compound]"
10,534 nM,"C[C@@H]1COCCN1c1cc(-c2c[nH]c3ncccc23)nc2c1ccn2S(C)(=O)=O [Compound 5, (R)-3-methyl-4-(1′-(methylsulfonyl)-1H,1′H-[3,6′-dipyrrolo[2,3-b]pyridin]-4′-yl)morpholine]"
11,843 nM,"C[C@@H]1COCCN1c1cc(-c2cn[nH]c2)nc2c1ccn2S(C)(=O)=O [Compound 10, (R)-3-methyl-4-(1-(methylsulfonyl)-6-(1H-pyrazol-4-yl)-1H-pyrrolo[2,3-b]pyridin-4-yl)morpholine]"
12,823 nM,"C[C@@H]1COCCN1c1cc(-c2nc3ccccc3[nH]2)nc2c1ccn2S(C)(=O)=O [Compound 11, (R)-4-(6-(1H-benzo[d]imidazol-2-yl)-1-(methylsulfonyl)-1H-pyrrolo[2,3-b]pyridin-4-yl)-3-methylmorpholine]"
13,31 nM,"C[C@@H]1COCCN1c1nc(-c2cncc3[nH]ccc23)nc2c1ccn2C [Compound 3′, reference compound]"
